Patent publication US8173636B2, “Hydroxylthienoquinolones and related compounds as anti-infective agents” (Achillion Pharmaceuticals, Inc., priority 2009, dated 2012)
≈ marks a conversion by molar mass, not a printed value.

Tests used:
[1] = system: fluoroquinolone-resistant S. aureus ATCC 700699; test: Minimum inhibitory concentration (MIC) assay, broth microdilution, MRSA; assay type: cell-based; settings: Staphylococcus aureus; fluoroquinolone-resistant S. aureus ATCC 700699; Table I; read-out: MRSA MIC
Procedure: (§1) The antimicrobial activity of the compounds of the invention may be evaluated by a number of methods, including the following visual minimum inhibitory concentration (MIC) assay. This assay determines the minimum concentration of compound required to inhibit growth of a bacterial strain.
(§2) Whole-cell antibacterial activity is determined by broth microdilution using conditions recommended by the NCCLS (see National Committee for Clinical Laboratory Standards. 2001. Performance standards for antimicrobial susceptibility testing: 11th informational supplement. Vol. 21, no. 1, M100-S11. National Committee for Clinical Laboratory Standards, Wayne, Pa.). Test compounds are dissolved in DMSO and diluted 1:50 in Mueller-Hinton II broth (Becton-Dickinson) to produce a 256 μg/ml stock solution. In a 96-well microtiter plate, the compound solution is serially two-fold diluted in Mueller-Hinton II broth. After the compounds are diluted, a 50 μl aliquot of the test organism (˜1×10^6 cfu/mL) is added to each well of the microtiter plate. The final test concentrations ranges from 0.125-128 μg/mL. Inoculated plates are incubated in ambient air at 37° C. for 18 to 24 hours. The organisms selected for testing included laboratory strains S. aureus ATCC 29213 and E. coli ATCC 25922 (strains purchased from American Type Culture Collection, Manassas, Va.) m, S. aureus FQR700699, and Paeruginosa 27853. The minimum inhibitory concentration (MIC) is determined as the lowest concentration of compound that inhibited visible growth of the test organism.

[2] = system: S. aureus ATCC 29213; test: Minimum inhibitory concentration (MIC) assay, broth microdilution, MSSA; assay type: cell-based; settings: Staphylococcus aureus, Table I
Procedure: as §1, §2

Row | MIC [1] [µg/mL] | MIC [2] [µg/mL] | Compound
1 | 0.13 (≈ 0.266 µM) | 0.02 (≈ 0.0409 µM) | COc1c(N2CC[C@@H]([C@H](C)NCCF)C2)c(F)cc2c(=O)c3c(O)c(C#N)sc3n(C3CC3)c12 [Cmp 1, 9-cyclopropyl-6-fluoro-7-((R)-3-((S)-1-(2-fluoroethylamino)ethyl)pyrrolidin-1-yl)-3-hydroxyl-8-methoxy-4-oxo-4,9-dihydrothieno[2,3-b]quinoline-2-carbonitrile]
2 | 0.42 (≈ 0.958 µM) | 0.06 (≈ 0.137 µM) | COc1c(N2CC[C@@H](C(C)(C)N)C2)ccc2c(=O)c3c(O)c(C#N)sc3n(C3CC3)c12 [Cmp 2, (R)-7-(3-(2-aminopropan-2-yl)pyrrolidin-1-yl)-9-cyclopropyl-3-hydroxyl-8-methoxy-4-oxo-4,9-dihydrothieno[2,3-b]quinoline-2-carbonitrile]
3 | 4 (≈ 8.88 µM) | 0.25 (≈ 0.555 µM) | N#Cc1sc2c(c1O)c(=O)c1cc(F)c(N3CCNCC3)c(OC(F)F)c1n2C1CC1 [Cmp 3, 9-cyclopropyl-8-(difluoromethoxy)-6-fluoro-3-hydroxyl-4-oxo-7-(piperazin-1-yl)-4,9-dihydrothieno[2,3-b]quinoline-2-carbonitrile]
4 | 0.13 (≈ 0.308 µM) | 0.02 (≈ 0.0475 µM) | COc1c(-c2ccnc(C)c2)c(F)cc2c(=O)c3c(O)c(C#N)sc3n(C3CC3)c12 [Cmp 4, 9-cyclopropyl-6-fluoro-3-hydroxyl-8-methoxy-7-(2-methylpyridin-4-yl)-4-oxo-4,9-dihydrothieno[2,3-b]quinoline-2-carbonitrile]
5 | 64 (≈ 131 µM) | 2 (≈ 4.09 µM) | COC(=O)c1sc2c(c1O)c(=O)c1cc(F)c(N3CC[C@@H](C(C)(C)N)C3)c(OC)c1n2C1CC1 [Cmp 5, (R)-methyl 7-(3-(2-aminopropan-2-yl)pyrrolidin-1-yl)-9-cyclopropyl-6-fluoro-3-hydroxyl-8-methoxy-4-oxo-4,9-dihydrothieno [2,3-b]quinoline-2-carboxylate]
6 | 32 (≈ 74.2 µM) | 2 (≈ 4.63 µM) | COc1c(N2CC[C@@H](C(C)(C)N)C2)c(F)cc2c(=O)c3c(O)csc3n(C3CC3)c12 [Cmp 6, (R)-7-(3-(2-aminopropan-2-yl)pyrrolidin-1-yl)-9-cyclopropyl-6-fluoro-3-hydroxyl-8-methoxythieno[2,3-b]quinolin-4(9H)-one]
7 | 32 (≈ 71.5 µM) | 3 (≈ 6.7 µM) | COC(=O)c1sc2c(c1O)c(=O)c1cc(F)c(N3CCNCC3)c(OC)c1n2C1CC1 [Cmp 7, methyl 9-cyclopropyl-6-fluoro-3-hydroxyl-8-methoxy-4-oxo-7-(piperazin-1-yl)-4,9-dihydrothieno[2,3-b] quinoline-2-carboxylate]
8 | 0.75 (≈ 1.81 µM) | 0.06 (≈ 0.145 µM) | COc1c(N2CCNCC2)c(F)cc2c(=O)c3c(O)c(C#N)sc3n(C3CC3)c12 [Cmp 9, 9-cyclopropyl-6-fluoro-3-hydroxyl-8-methoxy-4-oxo-7-(piperazin-1-yl)-4,9-dihydrothieno[2,3-b]quinoline-2-carbonitrile]
9 | 0.094 (≈ 0.206 µM) | 0.02 (≈ 0.0438 µM) | COc1c(N2CC[C@@H](C(C)(C)N)C2)c(F)cc2c(=O)c3c(O)c(C#N)sc3n(C3CC3)c12 [Cmp 10, (R)-7-(3-(2-aminopropan-2-yl)pyrrolidin-1-yl)-9-cyclopropyl-6-fluoro-3-hydroxyl-8-methoxy-4-oxo-4,9-dihydrothieno [2,3-b]quinoline-2-carbonitrile]
10 | 0.094 (≈ 0.212 µM) | 0.02 (≈ 0.0452 µM) | COc1c(N2CC[C@@H]([C@H](C)N)C2)c(F)cc2c(=O)c3c(O)c(C#N)sc3n(C3CC3)c12 [Cmp 11, 7-((R)-3-((S)-1-aminoethyl)pyrrolidin-1-yl)-9-cyclopropyl-6-fluoro-3-hydroxyl-8-methoxy-4-oxo-4,9-dihydrothieno[2,3-b] quinoline-2-carbonitrile]
11 | 8 (≈ 16.9 µM) | 8 (≈ 16.9 µM) | COc1c(N2CCNCC2)c(F)cc2c(=O)c3c(O)c(C(=O)C(C)(C)C)sc3n(C3CC3)c12 [Cmp 12, 9-cyclopropyl-6-fluoro-3-hydroxyl-8-methoxy-7-(piperazin-1-yl)-2-pivaloylthieno[2,3-b]quinolin 4(9H)-one]
12 | 32 (≈ 67.2 µM) | 8 (≈ 16.8 µM) | COc1c(N2CC[C@@H](C(C)(C)N)C2)c(F)cc2c(=O)c3c(O)c([N+](=O)[O-])sc3n(C3CC3)c12 [Cmp 13, (R)-7-(3-(2-aminopropan-2-yl)pyrrolidin-1-yl)-9-cyclopropyl-6-fluoro-3-hydroxyl-8-methoxy-2-nitrothieno[2,3-b] quinolin-4(9H)-one]
13 | 16 (≈ 30.2 µM) | 1 (≈ 1.89 µM) | COc1c(N2CCNCC2)c(F)cc2c(=O)c3c(O)c(S(=O)(=O)c4ccccc4)sc3n(C3CC3)c12 [Cmp 14, 9-cyclopropyl-6-fluoro-3-hydroxyl-8-methoxy-2-(phenylsulfonyl)-methoxy-2-7-(piperazin-1-yl)thieno[2,3-b]quinolin-4(9H)-one]
14 | 4 (≈ 7.98 µM) | 8 (≈ 16 µM) | COc1c(N2CCNCC2)c(F)cc2c(=O)c3c(O)c(-c4ccc(F)c(F)c4)sc3n(C3CC3)c12 [Cmp 15, 9-cyclopropyl-2-(3,4-difluorophenyl)-6-fluoro-3-hydroxyl-8-methoxy-7-(piperazin-1-yl)thieno[2,3-b]quinolin-4(9H)-one]
15 | 64 (≈ 148 µM) | 4 (≈ 9.25 µM) | N#Cc1sc2c(c1O)c(=O)c1ccc(N3CCNCC3)c(OC(F)F)c1n2C1CC1 [Cmp 16, 9-cyclopropyl-8-(difluoromethoxy)-3-hydroxyl-4-oxo-7-(piperazin-l-yl)-4,9-dihydrothieno[2,3-b]quinoline-2-carbonitrile]
16 | 64 (≈ 164 µM) | 4 (≈ 10.2 µM) | CN(C)c1ccc2c(=O)c3c(O)c(C#N)sc3n(C3CC3)c2c1OC(F)F [Cmp 17, 9-cyclopropyl-8-(difluoromethoxy)-7-(dimethylamino)-3-hydroxyl-4-oxo-4,9-dihydrothieno[2,3-b]quinoline-2-carbonitrile]
17 | 4 (≈ 8.17 µM) | 0.13 (≈ 0.266 µM) | N#CCN1CCN(c2c(F)cc3c(=O)c4c(O)c(C#N)sc4n(C4CC4)c3c2OC(F)F)CC1 [Cmp 18, 7-(4-(cyanomethyl)piperazin-1-yl)-9-cyclopropyl-8-(difluoromethoxy)-6-fluoro-3-hydroxyl-4-oxo-4,9-dihydrothieno [2,3-b]quinoline-2-carbonitrile]
18 | 4 (≈ 10.1 µM) | 0.25 (≈ 0.631 µM) | COc1c(N2CCNCC2)ccc2c(=O)c3c(O)c(C#N)sc3n(C3CC3)c12 [Cmp 19, 9-cyclopropyl-3-hydroxyl-8-methoxy-4-oxo-7-(piperazin-1-yl)-4,9-dihydrothieno[2,3-b]quinoline-2-carbonitrile]
19 | > 64 | 64 (≈ 132 µM) | COc1c(N2CCNCC2)c(F)cc2c(=O)c3c(O)c(C(=O)C(F)(F)F)sc3n(C3CC3)c12 [Cmp 20, 9-cyclopropyl-6-fluoro-3-hydroxyl-8-methoxy-7-(piperazin-1-yl)-2-(2,2,2-trifluoroacetyl)thieno[2,3-b]quinolin-4(9H)-one]
20 | 0.25 (≈ 0.603 µM) | 0.03 (≈ 0.0724 µM) | COc1c(N2CC[C@H](N)C2)c(F)cc2c(=O)c3c(O)c(C#N)sc3n(C3CC3)c12 [Cmp 22, (S)-7-(3-aminopyrrolidin-l-yl)-9-cyclopropyl-6-fluoro-3-hydroxyl-8-methoxy-4-oxo-4,9-dihydrothieno[2,3-b]quinoline-2-carbonitrile]
21 | 0.5 (≈ 1.2 µM) | 0.03 (≈ 0.0722 µM) | COc1c(N2CC[C@H](O)C2)c(F)cc2c(=O)c3c(O)c(C#N)sc3n(C3CC3)c12 [Cmp 23, (S)-9-cyclopropyl-6-fluoro-3-hydroxyl-7-(3-hydroxyl-pyrrolidin-1-yl)-8-methoxy-4-oxo-4,9-dihydrothieno [2,3-b]quinoline-2-carbonitrile]
22 | 1 (≈ 2.49 µM) | 0.06 (≈ 0.149 µM) | COc1c(N2CC(O)C2)c(F)cc2c(=O)c3c(O)c(C#N)sc3n(C3CC3)c12 [Cmp 24, 9-cyclopropyl-6-fluoro-3-hydroxyl-7-(3-hydroxylazetidin-1-yl)-8-methoxy-4-oxo-4,9-dihydrothieno[2,3-b]quinoline-2-carbonitrile]
23 | 2 (≈ 4.62 µM) | 0.25 (≈ 0.578 µM) | COc1c(N2CCNCC2)c(F)cc2c(=O)c3c(O)c(C(N)=O)sc3n(C3CC3)c12 [Cmp 25, 9-cyclopropyl-6-fluoro-3-hydroxyl-8-methoxy-4-oxo-7-(piperazin-1-yl)-4,9-dihydrothieno[2,3-b]quinoline-2-carboxamide]
24 |  | 64 (≈ 161 µM) | COc1c(N2CC[C@H](N)C2)c(F)cc2c(=O)c3c(O)c(C#N)[nH]c3n(C3CC3)c12 [Cmp 28, (S)-7-(3-aminopyrrolidin-l-yl)-9-cyclopropyl-6-fluoro-3-hydroxyl-8-methoxy-4-oxo-4,9-dihydro-1H-pyrrolo[2,3-b]quinoline-2-carbonitrile]

Row | Compound | MIC [1] [µg/mL] | MIC [2] [µg/mL]
25 | COc1c(N2CCNCC2)c(F)cc2c(=O)c3c(O)csc3n(C3CC3)c12 [Cmp 8, 9-cyclopropyl-6-fluoro-3-hydroxyl-8-methoxy-7-(piperazin-1-yl)thieno[2,3-b]quinolin-4(9H)-one] | > 64 | 32 (≈ 82.2 µM)
26 | N#Cc1sc2c(c1O)c(=O)c1cc(F)c(N3CCNCC3)cc1n2C1CC1 [Cmp 21, 9-cyclopropyl-6-fluoro-3-hydroxyl-4-oxo-7-(piperazin-1-yl)-4,9-dihydrothieno[2,3-b]quinoline-2-carbonitrile] | 2 (≈ 5.2 µM) | 0.13 (≈ 0.338 µM)
